Data taken from patent US10087142B2, “Azetidine derivatives useful as modulators of cortical cathecolaminergic neurotransmission” (Integrative Research Laboratories Sweden AB, priority 2015, dated 2018).
Where two headings read alike, the source gives them in different places. Marks after values point to notes of the source that are not given here.

What was measured:
[1] = tested on: DOPAC; assay: Neurochemistry: tissue levels of DOPAC in brain regions; type: in vivo, rat; conditions: 33 μmol/kg s.c., rats, 65 min before sacrifice, n = 5
Text: The change in turnover of dopamine in the terminal areas of the ascending dopaminergic projections of the mammalian brain can be illustrated by measuring of changes in biochemical indices in the brain e.g. changes in concentrations of dopamine metabolites such as 3,4-dihydroxyphenyl-acetic acid (DOPAC) in the striatum and frontal cortex.
The measurement of the tissue content of DOPAC is well established in the field of research since the 1960's. In short, male Sprague-Dawley rats are administered the test compound 60 minutes prior to decapitation. The brain is rapidly taken out and dissected. The striatum is rapidly frozen and subsequently quantitatively analyzed with respect to its content of DOPAC by means of HPLC and electrochemical detection. The number of animals used for each test compound/vehicle is 5/group.
After the behavioural activity sessions, the rats were decapitated and their brains rapidly taken out and put on an ice-cold petri-dish. The brains were dissected into a right and a left part of which the right part was analyzed for neurochemicals with HPLC and the left part was analyzed for gene expression. The limbic forebrain, the striatum, the frontal cortex, the hippocampus and the remaining hemispheral parts of each rat were dissected and frozen. Each brain part was subsequently analyzed with respect to its content of monoamines and their metabolites.
The monoamine transmitter substances (NA (noradrenaline), DA (dopamine), 5-HT (serotonin)) as well as one corresponding acid, (DOPAC (3,4-dihydroxyphenylacetic acid), were quantified in brain tissue homogenates by HPLC separations and electrochemical detection.
The analytical method is based on two chromatographic separations dedicated for amines or acids. Two chromatographic systems share a common auto injector with a 10-port valve and two sample loops for simultaneous injection on the two systems. Both systems are equipped with a reverse phase column (Luna C18 (2), dp 3 μm, 50*2 mm i.d., Phenomenex) and electrochemical detection is accomplished at two potentials on glassy carbon electrodes (MF-1000, Bioanalytical Systems, Inc.). The column effluent is passed via a T-connection to the detection cell or to a waste outlet. This is accomplished by two solenoid valves, which block either the waste or detector outlet. By preventing the chromatographic front from reaching the detector, better detection conditions are achieved. The aqueous mobile phase (0.4 ml/min) for the acid system contains citric acid 14 mM, sodium citrate 10 mM, Methanol 15% (v/v) and EDTA 0.1 mM. Detection potentials relative to Ag/AgCl reference are 0.45 and 0.60V. […] Detection potentials relative to Ag/AgCl reference are 0.45 and 0.65V.

[2] = tested on: monoamine transmitters (NA, DA and 5-HT); assay: In vivo brain microdialysis of monoamines in striatum and frontal cortex; design: species or system rat; conditions: 50 μmol/kg s.c., rats; for response vs control in vivo at 50 µmol/kg: Rattus norvegicus, sc
Text: The microdialysis technique (See, for instance, Collin and Ungerstedt, Microdialysis: user's guide, Carnegie Medicin, Stockholm, 1988) is a well-established technique for measuring extracellular levels of neurotransmitters (Ungerstedt, J Int Med, 1991, 230; 365-73). The microdialysis technique was used to measure the effect of compounds disclosed herein upon the efflux of monoamine transmitters (NA, DA and 5-HT) in striatum and frontal cortex in conscious, freely moving rats.
Male Sprague-Dawley rats weighing 280-320 g were used throughout the experiments. Before the experiment the animals were housed in groups, maximum five animals in each cage, with free access to water and food. The animals were housed at least one week prior to surgery and use in the experiments.
A modified version (Waters et al., J Neural Transm Gen Sect, 1994, 98(1); 39-55) of the I-shaped probe (Santiago and Westerink, N-S Arch Pharmacol, 1990, 342; 407-14) with the AN69 polyacrylonitrile/sodium methyl sulfonate copolymer (HOSPAL; o.d/i.d. 310/220 μm: dialysis membrane (Gambro, Lund, Sweden) was used in the microdialysis experiments. In the dorsal striatum, probes with an exposed length of 3 mm of dialysis membrane were used and in the prefrontal cortex the corresponding length was 2.5 mm. The rats were operated under isoflurane inhalation anesthesia while mounted into a Kopf stereotaxic instrument. Coordinates were calculated relative to bregma; dorsal striatum AP+1.0, ML±2.6, DV 6.2; Pf cortex, AP 15+3.2, ML+1.2, DV −4.08°, according to Paxinos and Watson (New York, Academic Press, 1986; FIG. 8 and FIG. 14). The dialysis probe was positioned in a burr hole under stereotaxic guidance and cemented with phosphatine dental cement (DAB Dental).
The rats were housed individually in cages for 48 h before the dialysis experiments, allowing them to recover from surgery and minimizing the risk of drug interactions with the anesthetics during the following experiments. During this period the rats had free access to food and water.
On the day of the experiment the rats were connected to a micro-perfusion pump via a swivel and were replaced in the cage where they could move freely within its confinements. The perfusion medium was a Ringer's solution containing (in mmol/I): NaCl; 140, CaCl2; 1.2, KCl; 3.0, MgCl2; 1.0 (Moghaddam and Bunney. Neurochem., 1989, 53; 652-4). The pump was set to a perfusion speed of 2 μl/min and 40 μl sample volume were collected every 20 min.
The rats were perfused for at least 40 min before sampling began. Five fractions of each 20 min were collected and the last three were used for the establishment of the baseline. After collection of baseline fractions, the pharmacological challenge to the dialysis experiment started. Test compounds were administrated by injection (s.c.) in a volume of 5 ml/kg, with 0.9% NaCl (saline) as vehicle.
The analytical method were based on two chromatographic separations dedicated for amines or acids. Two chromatographic systems shared a common auto injector with a 10-port valve and two sample loops for simultaneous injection on the two systems.
The acids were separated by reversed phase chromatography while the amines were separated by reversed phase ion pairing chromatography preceded by a reverse phase separation in a column switching configuration. Three separation columns (Luna C18 (2), dp 3 μm, 2 mm i.d., Phenomenex) of different lengths were used. Electrochemical detection was accomplished on glassy carbon electrodes (MF-1000, Bioanalytical Systems, Inc.)
The aqueous mobile phase (0.6 ml/min) for the acid system contained citric acid (40 mM, dipotassium hydrogen phosphate 10 mM, methanol 8-11% (v/v) and EDTA 0.1 mM. Column length was 30 mm and detection potential relative to Ag/AgCl reference was 0.74V. […]

In the case of `Fc1ccc(F)c(C(F)C2CNC2)c1.O=C(O)C(=O)O` (stereo not drawn) [Example 6, 3-[(2,5-Difluorophenyl)(Fluoro)Methyl]Azetidine Oxalate Salt], the “DOPAC frontal cortex ± SEM” value ([1]; frontal cortex tissue) is reported as 139 ± 10% of control means, the “DOPAC striatum ± SEM” value ([1]; striatum tissue) is reported as 76 ± 3% of control means and the “NA Stri ± SEM, maximum effect compared to baseline” value ([2]; striatum dialysate) is reported as 1375^a percent of control. It also gave a response vs control in vivo at 50 µmol/kg ([2]; frontal cortex dialysate, read-out: 5-HT FC ± SEM, maximum effect compared to baseline) of 182 ± 12%, a response vs control in vivo at 50 µmol/kg ([2]; striatum dialysate, read-out: 5-HT Stri ± SEM, maximum effect compared to baseline) of 208% and a response vs control in vivo at 50 µmol/kg ([2]; striatum dialysate, read-out: DA Stri ± SEM, maximum effect compared to baseline) of 242%.
